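Values below derive from 48-hour exposures of cells grown in 96-well plates, with endpoints linearly interpolated between the two concentrations bracketing the appropriate inhibition level. Definition used: TGI = concentration required for complete inhibition of growth.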
Columns and labels:
Assay in all cases: inhibition of tumour cell growth, NCI panel, 48 h
T-47D breast = test system: T-47D breast
M14 melanoma = test system: M14 melanoma
EKVX NSCLC = test system: EKVX NSCLC
SK-MEL-5 melanoma = test system: SK-MEL-5 melanoma
TK-10 renal = test system: TK-10 renal
NCI-H522 lung = test system: NCI-H522 lung
SR leukemia = test system: SR leukemia
A549 NSCLC = test system: A549 NSCLC
CCRF-CEM leukemia = test system: CCRF-CEM leukemia
HL-60(TB) leukemia = test system: HL-60(TB) leukemia
COLO 205 colon = test system: COLO 205 colon
NCI/ADR-RES ovarian = test system: NCI/ADR-RES ovarian
OVCAR-4 ovarian = test system: OVCAR-4 ovarian
SN12C renal = test system: SN12C renal
SF-268 CNS = test system: SF-268 CNS
LOX IMVI melanoma = test system: LOX IMVI melanoma
UACC-62 melanoma = test system: UACC-62 melanoma
SK-MEL-28 melanoma = test system: SK-MEL-28 melanoma
SNB-19 CNS = test system: SNB-19 CNS
MALME-3M melanoma = test system: MALME-3M melanoma

N#Cc1c(-c2ccc(Cl)cc2)cc(-c2ccc(Nc3ccnc4cc(C(F)(F)F)ccc34)cc2)[nH]c1=O
TGI (T-47D breast): 14.8 µM
TGI (M14 melanoma): 13.9 µM
TGI (EKVX NSCLC): > 100 µM
TGI (SK-MEL-5 melanoma): > 53.4 µM
TGI (TK-10 renal): 63.2 µM
TGI (NCI-H522 lung): > 100 µM
TGI (SR leukemia): 8.93 µM
TGI (A549 NSCLC): > 100 µM
TGI (CCRF-CEM leukemia): 11 µM
TGI (HL-60(TB) leukemia): 35 µM
TGI (COLO 205 colon): 59.4 µM
TGI (NCI/ADR-RES ovarian): > 100 µM
TGI (OVCAR-4 ovarian): 24.2 µM
TGI (SN12C renal): > 100 µM
TGI (SF-268 CNS): > 100 µM
TGI (LOX IMVI melanoma): > 23.5 µM
TGI (UACC-62 melanoma): 39.6 µM
TGI (SK-MEL-28 melanoma): > 34.6 µM
TGI (SNB-19 CNS): 34.3 µM
TGI (MALME-3M melanoma): > 100 µM

COC1=C2CC(C)CC(OC)[C@@H](OC(=O)CCN)[C@H](C)/C=C(\C)C(OC(N)=O)C(OC)/C=C\C=C(/C)C(=O)NC(=CC1=O)C2=O (stereo not given in full)
TGI (T-47D breast): 1.68 µM
TGI (M14 melanoma): 19.5 µM
TGI (EKVX NSCLC): 25 µM
TGI (SK-MEL-5 melanoma): 15.2 µM
TGI (TK-10 renal): 20.4 µM
TGI (NCI-H522 lung): 0.658 µM
TGI (SR leukemia): 8.71 µM
TGI (A549 NSCLC): 29.2 µM
TGI (CCRF-CEM leukemia): 1.49 µM
TGI (HL-60(TB) leukemia): 0.757 µM
TGI (COLO 205 colon): 0.964 µM
TGI (NCI/ADR-RES ovarian): 34.5 µM
TGI (OVCAR-4 ovarian): 12.6 µM
TGI (SN12C renal): 14.2 µM
TGI (SF-268 CNS): 26.2 µM
TGI (LOX IMVI melanoma): 2.22 µM
TGI (UACC-62 melanoma): 4.34 µM
TGI (SK-MEL-28 melanoma): 5.22 µM
TGI (SNB-19 CNS): 20.4 µM
TGI (MALME-3M melanoma): 16.3 µM

OCC(CN1CCCCC1)(CN1CCCCC1)CN1CCCCC1
TGI (T-47D breast): > 100 µM
TGI (M14 melanoma): > 100 µM
TGI (EKVX NSCLC): > 100 µM
TGI (SK-MEL-5 melanoma): > 100 µM
TGI (TK-10 renal): > 100 µM
TGI (NCI-H522 lung): > 100 µM
TGI (SR leukemia): > 100 µM
TGI (A549 NSCLC): > 100 µM
TGI (CCRF-CEM leukemia): > 100 µM
TGI (HL-60(TB) leukemia): > 100 µM
TGI (COLO 205 colon): > 100 µM
TGI (NCI/ADR-RES ovarian): > 100 µM
TGI (OVCAR-4 ovarian): > 100 µM
TGI (SN12C renal): > 100 µM
TGI (SF-268 CNS): > 100 µM
TGI (LOX IMVI melanoma): > 100 µM
TGI (UACC-62 melanoma): > 100 µM
TGI (SK-MEL-28 melanoma): > 100 µM
TGI (SNB-19 CNS): > 100 µM
TGI (MALME-3M melanoma): > 100 µM

COc1ccc(N(C)S(=O)(=O)c2ccccc2)cc1
TGI (T-47D breast): > 100 µM
TGI (M14 melanoma): > 100 µM
TGI (EKVX NSCLC): > 100 µM
TGI (SK-MEL-5 melanoma): > 100 µM
TGI (TK-10 renal): > 100 µM
TGI (NCI-H522 lung): > 100 µM
TGI (SR leukemia): > 100 µM
TGI (A549 NSCLC): > 100 µM
TGI (CCRF-CEM leukemia): > 100 µM
TGI (HL-60(TB) leukemia): > 100 µM
TGI (COLO 205 colon): > 100 µM
TGI (NCI/ADR-RES ovarian): > 100 µM
TGI (OVCAR-4 ovarian): > 100 µM
TGI (SN12C renal): > 100 µM
TGI (SF-268 CNS): > 100 µM
TGI (LOX IMVI melanoma): > 100 µM
TGI (UACC-62 melanoma): > 100 µM
TGI (SK-MEL-28 melanoma): > 100 µM
TGI (SNB-19 CNS): > 100 µM
TGI (MALME-3M melanoma): > 100 µM

Reference: PubChem BioAssay (NCI)
